Test results taken from patent US6689790B2, “Substituted triazolopyridine compounds” (Hoffmann-La Roche Inc., priority 2001, dated 2004).
pKi: −log10 of the molar value.

molecular target: T1, human adenosine A2A receptor (Homo sapiens, UniProt P29274); experiment: [3H]-SCH-58261 binding assay, human adenosine A2A receptor (CHO cell membranes, SPA); conditions: [3H]-SCH-58261 displacement; list of examples 10-108; read-out: hA2a Ki
T1 construct: expressed in transfected cells; host or cells: CHO cells, semliki forest virus expression system; washed membranes
Method: Human Adenosine A2A Receptor
The human adenosine A2A receptor was recombinantly expressed in chinese hamster ovary (CHO) cells using the semliki forest virus expression system. Cells were harvested, washed twice by centrifugation, homogenized and again washed by centrifugation. The final washed membrane pellet was suspended in a Tris (50 mM) buffer containing 120 mM NaCl, 5 mM KCl, 2 mM CaCl2 and 10 mM MgCl2 (pH 7.4) (buffer A). […] Compounds were tested at 10 concentrations from 10 μM-0.3 nM. All assays were conducted in duplicate and repeated at least two times. Assay plates were incubated for 1 hour at room temperature before centrifugation and then bound ligand determined using a Packard Topcount scintillation counter. IC50 values were calculated using a non-linear curve fitting program and Ki values calculated using the Cheng-Prussoff equation.

T1 sequence (P29274 whole entry): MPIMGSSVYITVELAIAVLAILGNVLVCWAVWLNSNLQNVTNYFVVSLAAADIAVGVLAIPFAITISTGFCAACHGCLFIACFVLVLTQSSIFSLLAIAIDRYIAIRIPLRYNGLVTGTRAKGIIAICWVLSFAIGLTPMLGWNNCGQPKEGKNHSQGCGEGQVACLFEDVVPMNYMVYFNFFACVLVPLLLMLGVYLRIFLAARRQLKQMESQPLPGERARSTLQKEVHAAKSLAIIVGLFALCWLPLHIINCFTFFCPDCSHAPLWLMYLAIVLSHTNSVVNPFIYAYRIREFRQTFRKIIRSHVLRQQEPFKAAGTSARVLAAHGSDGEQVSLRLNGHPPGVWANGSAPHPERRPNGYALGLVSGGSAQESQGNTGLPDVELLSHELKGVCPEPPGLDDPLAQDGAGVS

Row | SMILES | pKi
1 | CC1CCCN1C(=O)c1cc(N)c2nc(-c3ccccn3)nn2c1 (stereo not shown) [Example 28, (8-Amino-2-pyridin-2-yl-[1,2,4]triazolo[1,5-a]pyridin-6-yl)-(2-methyl-pyrrolidin-1-yl)-methanone] | 6.43
2 | NC(=O)[C@H]1CCCN1C(=O)c1cc(N)c2nc(-c3cccs3)nn2c1 [Example 59, 1-(8-Amino-2-thiophen-2-yl-[1,2,4]triazolo[1,5-a]pyridine-6-carbonyl)-pyrrolidine-2-R-carboxylic acid amide] | 6.67
3 | CN(C)C(=O)CN(C)C(=O)c1cc(N)c2nc(-c3cccs3)nn2c1 [Example 60, 8-Amino-2-thiophen-2-yl-[1,2,4]triazolo[1,5-a]pyridine-6-carboxylic acid dimethylcarbamoyl-methyl-methyl-amide] | 6.26
4 | CCN(CC)C(=O)c1cc(N)c2nc(-c3ccco3)nn2c1 [Example 33, 8-Amino-2-furan-2-yl-[1,2,4]triazolo[1,5-a]pyridine-6-carboxylic acid diethylamide] | 6.37
5 | CC1CCCN1C(=O)c1cc(N)c2nc(-c3cccs3)nn2c1 (stereo not shown) [Example 53, (8-Amino-2-thiophen-2-yl-[1,2,4]triazolo[1,5-a]pyridin-6-yl)-(2-methyl-pyrrolidin-1-yl)-methanone] | 6.63
6 | CCN(CC)C(=O)C1CCCN(C(=O)c2cc(N)c3nc(-c4ccccn4)nn3c2)C1 (stereo not shown) [Example 29, 1-(8-Amino-2-pyridin-2-yl-[1,2,4]triazolo[1,5-a]pyridine-6-carbonyl)-piperidine-3-carboxylic acid diethylamide] | 6.23
7 | CCN(CCOC)C(=O)c1cc(N)c2nc(-c3ccco3)nn2c1 [Example 45, 8-Amino-2-furan-2-yl-[1,2,4]triazolo[1,5-a]pyridine-6-carboxylic acid ethyl-(2-methoxy-ethyl)-amide] | 6.30
8 | Nc1cc(C(=O)N2CCCCC2)cn2nc(-c3cccs3)nc12 [Example 52, (8-Amino-2-thiophen-2-yl-[1,2,4]triazolo[1,5-a]pyridin-6-yl)-piperidin-1-yl-methanone] | 6.45
9 | CN(C)C(=O)CN(C)C(=O)c1cc(N)c2nc(-c3ccco3)nn2c1 [Example 44, 8-Amino-2-furan-2-yl-[1,2,4]triazolo[1,5-a]pyridine-6-carboxylic acid dimethylcarbamoyl-methyl-methyl-amide] | 6.47
10 | CN(CCc1ccccc1)C(=O)c1cc(N)c2nc(-c3ccco3)nn2c1 [Example 50, 8-Amino-2-furan-2-yl-[1,2,4]triazolo[1,5-a]pyridine-6-carboxylic acid methyl-phenethyl-amide] | 6.60
11 | CCCCN(C)C(=O)c1cc(N)c2nc(-c3ccccc3)nn2c1 [Example 71, 8-Amino-2-phenyl-[1,2,4]triazolo[1,5-a]pyridine-6-carboxylic acid methyl-butyl-amide] | 6.32
12 | CC1CCCN(C(=O)c2cc(N)c3nc(-c4cccs4)nn3c2)C1 (stereo not shown) [Example 62, (8-Amino-2-thiophen-2-yl-[1,2,4]triazolo[1,5-a]pyridin-6-yl)-(3-methyl-piperidin-1-yl)-methanone] | 6.15
13 | CCCN(CCC)C(=O)c1cc(N)c2nc(-c3ccco3)nn2c1 [Example 38, 8-Amino-2-furan-2-yl-[1,2,4]triazolo[1,5-a]pyridine-6-carboxylic acid dipropylamide] | 6.43
14 | CCCN(C)C(=O)c1cc(N)c2nc(-c3ccco3)nn2c1 [Example 47, 8-Amino-2-furan-2-yl-[1,2,4]triazolo[1,5-a]pyridine-6-carboxylic acid methyl-propyl-amide] | 6.62
15 | COCC1CCCN1C(=O)c1cc(N)c2nc(-c3ccccc3)nn2c1 (stereo in doubt) [Example 75, (8-Amino-2-phenyl-[1,2,4]triazolo[1,5-a]pyridin-6-yl)-((S)-2-methoxymethyl-pyrrolidin-1-yl)-methanone] | 6.38
16 | Nc1cc(C(=O)N2CCSCC2)cn2nc(-c3ccco3)nc12 [Example 49, (8-Amino-2-furan-2-yl-[1,2,4]triazolo[1,5-a]pyridin-6-yl)-thiomorpholin-4-yl-methanone] | 6.20
17 | CCN(CC)C(=O)C1CCCN(C(=O)c2cc(N)c3nc(-c4ccco4)nn3c2)C1 (stereo not shown) [Example 40, 1-(8-Amino-2-furan-2-yl-[1,2,4]triazolo[1,5-a]pyridine-6-carbonyl)-piperidine-3-carboxylic acid diethylamide] | 6.43

The next lines start with the values.

Row | pKi | SMILES
18 | 6.05 | CCCN(C)C(=O)c1cc(N)c2nc(-c3ccccc3)nn2c1 [Example 79, 8-Amino-2-phenyl-[1,2,4]triazolo[1,5-a]pyridine-6-carboxylic acid methyl-propyl-amide]
19 | 6.66 | Cc1ccc(-c2nc3c(N)cc(C(=O)N(C)CC(=O)N(C)C)cn3n2)s1 [Example 98, 8-Amino-2-(5-methyl-thiophen-2-yl)-[1,2,4]triazolo[1,5-a]pyridine-6-carboxylic acid dimethylcarbamoyl-methyl-methyl-amide]
20 | 6.54 | Nc1cc(C(=O)N2CC=CCC2)cn2nc(-c3ccccc3)nc12 [Example 80, (8-Amino-2-phenyl-[1,2,4]triazolo[1,5-a]pyridin-6-yl)-(3,6-dihydro-2H-pyridin-1-yl)-methanone]
21 | 6.18 | CC1CCCN1C(=O)c1cc(N)c2nc(-c3nccs3)nn2c1 (stereo not shown) [Example 105, (8-Amino-2-thiazol-2-yl-[1,2,4]triazolo[1,5-a]pyridin-6-yl)-(2-methyl-pyrrolidin-1-yl)-methanone]
22 | 6.17 | CN(C)C(=O)CN(C)C(=O)c1cc(N)c2nc(-c3ccccc3)nn2c1 [Example 77, 8-Amino-2-phenyl-[1,2,4]triazolo[1,5-a]pyridine-6-carboxylic acid dimethylcarbamoyl-methyl-methyl-amide]
23 | 6.49 | CCN(CC)C(=O)c1cc(N)c2nc(-c3ccc(C)s3)nn2c1 [Example 93, 8-Amino-2-(5-methyl-thiophen-2-yl)-[1,2,4]triazolo[1,5-a]pyridine-6-carboxylic acid diethylamide]
24 | 6.65 | Cc1ccc(-c2nc3c(N)cc(C(=O)N4CCCCC4)cn3n2)s1 [Example 95, [8-Amino-2-(5-methyl-thiophen-2-yl)-[1,2,4]triazolo[1,5-a]pyridin-6-yl]-piperidin-1-yl-methanone]
25 | 6.62 | CCN(CCOC)C(=O)c1cc(N)c2nc(-c3ccc(C)s3)nn2c1 [Example 99, 8-Amino-2-(5-methyl-thiophen-2-yl)-[1,2,4]triazolo[1,5-a]pyridine-6-carboxylic acid ethyl-(2-methoxy-ethyl)-amide]
26 | 6.28 | CN(CCc1ccccc1)C(=O)c1cc(N)c2nc(-c3ccccc3)nn2c1 [Example 81, 8-Amino-2-phenyl-[1,2,4]triazolo[1,5-a]pyridine-6-carboxylic acid methyl-phenethyl-amide]
27 | 6.64 | CCCN(C)C(=O)c1cc(N)c2nc(-c3ccc(C)s3)nn2c1 [Example 101, 8-Amino-2-(5-methyl-thiophen-2-yl)-[1,2,4]triazolo[1,5-a]pyridine-6-carboxylic acid methyl-propyl-amide]
28 | 6.98 | CCN(CCOC)C(=O)c1cc(N)c2nc(-c3ccc(C)o3)nn2c1 [Example 87, 8-Amino-2-(5-methyl-furan-2-yl)-[1,2,4]triazolo[1,5-a]pyridine-6-carboxylic acid ethyl-(2-methoxy-ethyl)-amide]
